Experiment: refractive index (Na D-line) (dimensionless); xn = mol fraction of the nth substance listed
Conditions: 100 kPa, Liquid, Standard Abbe refractometry

CCC12CC3CC(CC(C3)C1)C2 [1-ethyladamantane] + OCC1CCCCC1
refractive index
Conditions | x2 = 0 | x2 = 0.1 | x2 = 0.2002 | x2 = 0.2997 | x2 = 0.3999 | x2 = 0.4998 | x2 = 0.5989 | x2 = 0.7001 | x2 = 0.8023 | x2 = 0.8996
293.15 K | 1.4927 | 1.4903 | 1.4877 | 1.4853 | 1.4828 | 1.4801 | 1.477 | 1.474 | 1.4708 | 1.4673
298.15 K | 1.4906 | 1.4883 | 1.4861 | 1.4835 | 1.4807 | 1.478 | 1.4754 | 1.4721 | 1.4689 | 1.4655
303.15 K | 1.4884 | 1.4861 | 1.4836 | 1.4812 | 1.4783 | 1.4757 | 1.4733 | 1.47 | 1.4668 | 1.4634
313.15 K | 1.4839 | 1.4816 | 1.4791 | 1.4768 | 1.4741 | 1.471 | 1.4687 | 1.4657 | 1.4623 | 1.4593
323.15 K | 1.4802 | 1.4775 | 1.4751 | 1.4725 | 1.4699 | 1.4672 | 1.4645 | 1.4616 | 1.4584 | 1.4553
333.15 K | 1.4759 | 1.4725 | 1.4703 | 1.4678 | 1.4652 | 1.4627 | 1.4599 | 1.4571 | 1.4541 | 1.451

Reference: the NIST ThermoML archive (doi:10.1021/je500381c)
